Reference: patent US4288630A, “1-Hydroxymethyl-11,15-dihydroxy-prosten-1-ol-derivatives” (American Cyanamid Company, priority 1980, dated 1981)

Assays:
Type in all cases: in vivo, dog
Settings in all cases: Konzett data
Ach = assay: Konzett bronchodilator assay, Ach
Hist = assay: Konzett bronchodilator assay, Hist
5-HT = assay: Konzett bronchodilator assay, 5-HT

CCCCCC(C)(O)/C=C/C1C(O)CC(=O)C1C/C=C\CCCCO (racemic) [dl-1,11,15-trihydroxymethyl-9-oxo-15-methyl-5-cis-13-trans prostadiene]
Ach (ED50 g/kg) (Ach): 0.0043 g/kg
Hist (ED50 g/kg) (Hist): 0.00075 g/kg
5-HT (ED50 g/kg) (5-HT): 0.0083 g/kg
